The values below come from patent US20080255174A1, “Hydroalcoholic Extract Of Erythrina Mulungu, Pharmaceutical Compositions And Processes For Producing These Substances” (priority 2004, published 2008).

Assay [1] has as its system Swiss mice. Briefly: locomotive activity test in the arena. The settings on record: for Crossings / Stretch-attend postures: acute, number in five minutes, average ± EPM. Type of assay: in vivo. On the procedure:
(§1) Swiss mice weighing 25-35 g from the central animal laboratory of the Sao Paulo State University (UNESP/Araraquara) were used. The animals were housed in groups of 10-12 animals, in polypropylene cages with wood shavings on the floor, with food and water available ad […]]. The animal laboratory was maintained under constant temperature 22±1° C., the lighting was controlled in 12-hour cycles from 7:00 am to 7:00 pm and the humidity was kept at between 50-60%. The pharmacological evaluation was performed with extract, standard drug and vehicle. Accordingly, lyophilized hydroalcoholic extract (50, 100, 200 and 400 mg/kg) was used, in addition to F2 (3, 6, 10, 17 and 30 mg/kg) and the alkaloids erythrartine, erythravine and 11-OH-erythravine (3 and 10 mg/kg), administered via oral intake by gavage. The standard drug used was Diazepam (DZP) in a dose of 2 mg/kg (via intraperitoneal, i.p). All solutions were prepared on the day of the experiment with sodium […] 0.9% and sonicated for 15 minutes and the diazepam in a solution of sodium […] 0.9% and Tween-80. The experiments were carried out between 11:00 am and 5:00 pm, and the experiment apparatus and procedures are described ahead. The elevated T maze is made with transparent glass walls and wooden floor and consists of a closed arm (30×5×15 cm) perpendicularly linked to two open arms (30×5×0.25 cm), raised at 38.5 cm above the floor by a wooden support. In this test, five consecutive measures of inhibitory avoidance were performed (basal latency, avoidances 1, 2, 3 and 4) and one measure of escape from the open arms, with intervals of 30 seconds between each attempt. In the avoidance measures, the animals were placed in the distal section of the closed arm and the exit latency of this arm, on all four paws, towards the open arm was timed. In the escape measure, the animals were placed in the extremity of the right-hand open arm and the departure time from this arm was measured. The animals' maximum length of stay in the arms of the maze during these measures was 300 seconds. The apparatus was cleaned with ethanol 20% after testing each animal. In order to avoid false positives or negatives, immediately after testing in the elevated T maze, the animals were submitted to the locomotive activity test in the arena. The apparatus consists of a white polypropylene box with a rectangular base (40×48 cm), surrounded by 30 cm high walls. The floor is subdivided into 30 squares (8×8 cm). In this test, the animals were placed in the center of the box and their activity was video recorded for five minutes, for subsequent analysis of the number of crossings of the quadrant areas and number of stretch-attend postures (WALSH and CUMMINS, 1976).
(§2) All the results from the animal models were initially submitted to the Levene homogeneity test. The heterogeneous results were converted into a logarithmic scale and later analyzed statistically. The results obtained from the elevated T maze were submitted to a two-way analysis of variance (ANOVA), with treatment being an independent factor and attempts being a dependent factor. […] The results obtained with the arena were submitted to a one-way ANOVA followed by the Duncan post hoc test. Amounts p≦0.05 were considered to be significant results.

The test system of assay [2] is Swiss mice. Briefly: elevated T maze test (inhibitory avoidance and escape from the open arms). The assay is classed as in vivo. Set-up: Escape: unit not given here. To be noted: for Escape / Inhibitory avoidances E1 / Inhibitory avoidances E2 / Inhibitory avoidances E3 / Inhibitory avoidances E4 / Inhibitory avoidances LB (basal latency): acute, average ± EPM; for Escape: departure time from open arm; for Inhibitory avoidances E1 / Inhibitory avoidances E2 / Inhibitory avoidances E3 / Inhibitory avoidances E4 / Inhibitory avoidances LB (basal latency): latency, maximum 300 seconds. As for the experimental part:
as §1, §2

The subject of assay [3] is serotonergic 3 receptor (5-HT3). To be noted: in vitro test (ELSELÈ et al., 1993); cited from earlier work.

Regarding `COc1cc2c(cc1OC)[C@]13C[C@@H](O)C=CC1=CCN3C[C@H]2O` [11-OH-erythravine, 11-hydroxy-erythravine], in the assay with Swiss mice [1] (3 mg/kg oral by gavage), the Crossings is recorded as 158.5 ± 7.12 and the Stretch-attend postures came to 27.7 ± 3.20. In the assay on Swiss mice [1] (10 mg/kg oral by gavage), the Crossings was found to be 126.5 ± 12.71 and the Stretch-attend postures was 22.4 ± 3.50. For the same molecule, in the assay with Swiss mice [1] (3 and 10 mg/kg oral, one-way ANOVA, result in words), the “locomotive activity (number of crossings and stretch-attend postures)” value is reported as “none of the doses of 11-OH-erythravine used altered the locomotive activity”. Also, in the assay on Swiss mice [2] (3 mg/kg oral by gavage), the Escape turned out to be 21.5 ± 3.7, the “Inhibitory avoidances E1” value is reported as 41.8 ± 14.2, the “Inhibitory avoidances E2” value turned out to be 96.0 ± 34.4 and the “Inhibitory avoidances E3” value amounted to 132.3 ± 39.7. In the assay on Swiss mice [2] (3 mg/kg oral by gavage), the “Inhibitory avoidances E4” value was found to be 194.4 ± 39.5 and the “Inhibitory avoidances LB (basal latency)” value was determined as 30.7 ± 5.8. In the assay on Swiss mice [2] (10 mg/kg oral by gavage), the Escape worked out at 26.8 ± 4.8, the “Inhibitory avoidances E1” value turned out to be 30.0 ± 6.1, the “Inhibitory avoidances E2” value is given as 54.0 ± 21.1 and the “Inhibitory avoidances E3” value is 66.6 ± 30.3. In addition, in the assay on Swiss mice [2] (10 mg/kg oral by gavage), the “Inhibitory avoidances E4” value was found to be 94.8 ± 31.7 and the “Inhibitory avoidances LB (basal latency)” value was 22.6 ± 3.5. For the same molecule, the “performance in the inhibitory avoidance task” value in the assay with Swiss mice [2] (acute treatment, 3 and 10 mg/kg oral, result in words) is reported as “impaired the performance of the animals in the inhibitory avoidance task”.

`CN1C(=O)CN=C(c2ccccc2)c2cc(Cl)ccc21` [DZP, Diazepam, reference compound]: in the assay on Swiss mice [1] (DZP 2 mg/kg i.p.), the Crossings is listed as 154.6 ± 19.48 and the Stretch-attend postures is on record as 19.13 ± 2.03. In the assay with Swiss mice [2] (DZP 2 mg/kg i.p.), the Escape is recorded as 19.0 ± 3.2, the “Inhibitory avoidances E1” value turned out to be 15.3 ± 3.8, the “Inhibitory avoidances E2” value amounted to 12.25 ± 1.6 and the “Inhibitory avoidances E3” value stood at 22.3 ± 7.7. Further, in the assay on Swiss mice [2] (DZP 2 mg/kg i.p.), the “Inhibitory avoidances E4” value came out at 24.2 ± 7.3 and the “Inhibitory avoidances LB (basal latency)” value is given as 24.6 ± 4.1.

`CO[C@H]1CC=C2CCN3CCC4=C(CC(=O)OC4)[C@]23C1` [DHBE, dihydro-β-erythroidine]: the “action at 5-HT3 receptor” value in assay [3] is reported as “serotonergic 3 antagonist receptor (5-HT3)”.
